One assay concerns the target T1, FLT3-ITD (Homo sapiens, UniProt P36888).
T1 construct: FLT3-ITD; Invitrogen #PV6190
T1 sequence (P36888 1-993): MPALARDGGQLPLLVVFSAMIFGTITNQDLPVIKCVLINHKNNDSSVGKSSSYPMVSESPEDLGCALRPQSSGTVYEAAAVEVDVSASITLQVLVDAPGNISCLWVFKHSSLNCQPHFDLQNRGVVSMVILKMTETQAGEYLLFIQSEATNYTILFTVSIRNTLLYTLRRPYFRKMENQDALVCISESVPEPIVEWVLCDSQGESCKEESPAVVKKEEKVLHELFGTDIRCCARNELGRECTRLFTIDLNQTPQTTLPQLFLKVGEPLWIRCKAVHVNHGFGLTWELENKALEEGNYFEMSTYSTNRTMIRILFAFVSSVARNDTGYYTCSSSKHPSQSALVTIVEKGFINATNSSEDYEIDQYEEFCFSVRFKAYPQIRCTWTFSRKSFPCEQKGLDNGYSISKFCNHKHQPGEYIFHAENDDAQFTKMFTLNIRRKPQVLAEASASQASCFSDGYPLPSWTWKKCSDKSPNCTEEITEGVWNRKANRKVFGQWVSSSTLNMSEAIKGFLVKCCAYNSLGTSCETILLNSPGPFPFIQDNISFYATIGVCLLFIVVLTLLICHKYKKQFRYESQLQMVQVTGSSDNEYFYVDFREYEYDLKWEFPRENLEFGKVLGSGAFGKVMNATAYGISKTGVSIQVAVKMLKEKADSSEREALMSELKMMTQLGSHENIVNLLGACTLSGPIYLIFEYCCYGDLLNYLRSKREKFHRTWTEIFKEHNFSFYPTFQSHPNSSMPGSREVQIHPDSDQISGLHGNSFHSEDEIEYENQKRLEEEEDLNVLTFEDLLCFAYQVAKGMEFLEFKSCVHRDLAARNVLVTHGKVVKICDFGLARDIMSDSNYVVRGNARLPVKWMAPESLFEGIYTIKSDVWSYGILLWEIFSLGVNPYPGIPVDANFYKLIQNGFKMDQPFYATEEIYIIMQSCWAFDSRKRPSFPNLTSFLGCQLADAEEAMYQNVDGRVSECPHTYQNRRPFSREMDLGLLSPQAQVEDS
Kind of assay: FLT3-ITD biochemical kinase assay (AlphaScreen). From the text:
(§1) In order to determine the effect of compounds on FLT3 catalytic activity, kinase assays using recombinant enzymes and AlphaScreen® technology have been established. When the kinases are catalytically active, they phosphorylate a biotinylated peptide substrate on tyrosine residues. Using AlphaScreen® technology, the ability of the compounds to affect the catalytic activity of the kinases can be measured quantitatively. The peptide substrate is immobilized by the AlphaScreen® Streptavidin Donor beads and, upon phosphorylation by a tyrosine kinase, can bind to AlphaScreen® Anti-Phosphotyrosine (PY20) Acceptor beads. Upon excitation of these beads with laser light at 680 nm, singlet oxygen is produced. This singlet oxygen is rapidly quenched, unless the AlphaScreen® Anti-Phosphotyrosine (PY20) Acceptor beads are in close proximity, in which case a proximity signal can be measured at 580 nm. In the presence of catalytic activity, there is a very strong proximity signal. Selective kinase inhibitors affect a decrease in this proximity signal through a decrease in tyrosine phosphorylation of the peptide substrate.
(§2) Substrate • Poly (Glu4-Tyr) Peptide, biotin conjugate [Biotin-GG(EEEEY)10EE (SEQ ID NO: 4)] • UBI/Millipore #12-440 • Final concentration=30 nM
(§3) Adenosine Triphosphate (ATP) • Sigma #A-3377 • Final concentration for IC50 determination=10 μM (FLT3-D835Y) or 100 μM (FLT3 or FLT3-ITD) • Detection Reagent • AlphaScreen® Phosphotyrosine (PY20) Assay Kit • Perkin-Elmer #6760601M • Final concentration=10 μg/mL
(§4) Centrifuge 1 minute, shake to mix, and incubate as follows:
(§5) • Mix Streptavidin Donor beads at 6× final concentration in Stop/Detection buffer. • Add 5 μL Streptavidin Donor beads to the reaction plate. Centrifuge 1 minute, shake to mix, and incubate at room temperature for 20 minutes. • Mix Anti-Phosphotyrosine (PY20) Acceptor beads at 6× final concentration in Stop/Detection buffer. • Add 5 μL Anti-Phosphotyrosine (PY20) beads to the reaction plate. • Centrifuge 1 minute, shake to mix, and incubate at room temperature for 60 minutes. • Read plate on Wallac EnVision™ 2103 Multilabel Reader. In Vivo Model System Testing

Another assay has as its target T2, FLT3-D835Y (Homo sapiens, UniProt P36888, D835Y).
T2 construct: purchased Invitrogen PV3967
T2 sequence (P36888 27-993 D835Y): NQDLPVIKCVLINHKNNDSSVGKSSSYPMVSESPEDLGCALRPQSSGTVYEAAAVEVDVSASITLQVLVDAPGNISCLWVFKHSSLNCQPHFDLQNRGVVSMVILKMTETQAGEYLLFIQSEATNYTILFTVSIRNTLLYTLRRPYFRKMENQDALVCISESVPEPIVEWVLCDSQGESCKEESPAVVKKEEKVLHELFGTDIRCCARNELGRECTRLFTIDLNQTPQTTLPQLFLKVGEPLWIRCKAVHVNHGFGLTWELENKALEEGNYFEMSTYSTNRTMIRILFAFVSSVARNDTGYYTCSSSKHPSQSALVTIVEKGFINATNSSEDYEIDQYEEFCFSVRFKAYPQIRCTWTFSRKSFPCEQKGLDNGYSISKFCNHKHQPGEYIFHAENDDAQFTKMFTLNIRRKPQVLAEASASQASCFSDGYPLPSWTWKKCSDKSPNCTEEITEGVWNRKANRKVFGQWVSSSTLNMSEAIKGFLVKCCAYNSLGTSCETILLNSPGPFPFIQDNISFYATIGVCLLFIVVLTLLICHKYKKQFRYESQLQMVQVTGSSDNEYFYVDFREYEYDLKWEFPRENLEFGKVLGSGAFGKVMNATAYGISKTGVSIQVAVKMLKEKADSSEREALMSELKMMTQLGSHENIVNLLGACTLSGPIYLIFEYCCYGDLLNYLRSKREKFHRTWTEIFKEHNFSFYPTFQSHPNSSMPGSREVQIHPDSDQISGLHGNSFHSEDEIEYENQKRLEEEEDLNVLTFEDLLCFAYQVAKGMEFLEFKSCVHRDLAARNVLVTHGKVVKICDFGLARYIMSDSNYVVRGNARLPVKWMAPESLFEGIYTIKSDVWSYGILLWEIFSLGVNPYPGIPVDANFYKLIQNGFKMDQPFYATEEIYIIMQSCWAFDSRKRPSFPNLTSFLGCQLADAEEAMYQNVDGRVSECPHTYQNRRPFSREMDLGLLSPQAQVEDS
Kind of assay: FLT3-D835Y biochemical kinase assay (AlphaScreen).
Description: as §1, §2, §3, §4, §5

Structures are written as SMILES.

Compound `C=CCS(=O)(=O)Nc1cccc(-c2cnc3[nH]cc(-c4ccc5ncn(C(C)(C)C)c5c4)c3c2)c1` [P-375, N-[3-[3-(3-tert-butylbenzimidazol-5-yl)-1H-pyrrolo[2,3-b]pyridin-5-yl]phenyl]prop-2-ene-1-sulfonamide] displayed a concentration for half-maximal inhibition (IC50) on FLT3-ITD of 0.0001 to 1 µM.

For `CC(C)S(=O)(=O)Nc1cccc(-c2cnc3[nH]cc(-c4ccc5ncsc5c4)c3n2)c1` [P-184, N-[3-[7-(1,3-benzothiazol-6-yl)-5H-pyrrolo[2,3-b]pyrazin-2-yl]phenyl]propane-2-sulfonamide], the IC50 against FLT3-D835Y was in the range of 0.0001 to 1 µM. Turning to `Cc1cc(-c2cnc3[nH]cc(-c4ccc5ncn(C(C)(C)C)c5c4)c3c2)cnc1C#N` [P-393, 5-[3-(3-tert-butylbenzimidazol-5-yl)-1H-pyrrolo[2,3-b]pyridin-5-yl]-3-methyl-pyridine-2-carbonitrile], the IC50 against FLT3-ITD was in the range of 0.0001 to 1 µM. `Cn1cc(-c2cnc3[nH]cc(-c4ccc5ncsc5c4)c3n2)ccc1=O` [P-182, 5-[7-(1,3-benzothiazol-6-yl)-5H-pyrrolo[2,3-b]pyrazin-2-yl]-1-methyl-pyridin-2-one] gave a half-maximal inhibitory concentration (IC50) on FLT3-D835Y of 0.0001 to 1 µM. As for `CC(C)(C)n1cnc2ccc(-c3c[nH]c4ncc(-c5cnc(NC6CC6)nc5)cc34)cc21` [P-400, 5-[3-(3-tert-butylbenzimidazol-5-yl)-1H-pyrrolo[2,3-b]pyridin-5-yl]-N-cyclopropyl-pyrimidin-2-amine], the half-inhibitory concentration (IC50) against FLT3-ITD was in the range of 0.0001 to 1 µM.

`CC(C)(C)n1cnc2ccc(-c3c[nH]c4ncc(NS(=O)(=O)c5cccc(C#N)c5)cc34)cc21` [P-233, N-[3-(3-tert-butylbenzimidazol-5-yl)-1H-pyrrolo[2,3-b]pyridin-5-yl]-3-cyano-benzenesulfonamide] displayed a 50% inhibitory concentration (IC50) against FLT3-D835Y of 0.0001 to 1 µM. `COc1cc(-c2cnc3[nH]cc(-c4ccc5ncn(C(C)(C)C)c5c4)c3c2)ccc1C#N` [P-372, 4-[3-(3-tert-butylbenzimidazol-5-yl)-1H-pyrrolo[2,3-b]pyridin-5-yl]-2-methoxy-benzonitrile] registered a half-inhibitory concentration (IC50) at FLT3-ITD of 0.0001 to 1 µM.

In the case of `COc1cnc2[nH]cc(-c3ccc4[nH]ncc4c3)c2c1` [P-003, 3-(1H-indazol-5-yl)-5-methoxy-1H-pyrrolo[2,3-b]pyridine], the IC50 against FLT3-D835Y was in the range of 1 to 10 µM. `COc1ccc(-c2cnc3[nH]cc(-c4ccc5ncn(C(C)(C)C)c5c4)c3c2)cc1NS(C)(=O)=O` [P-370, N-[5-[3-(3-tert-butylbenzimidazol-5-yl)-1H-pyrrolo[2,3-b]pyridin-5-yl]-2-methoxy-phenyl]methanesulfonamide] had a concentration for half-maximal inhibition (IC50) against FLT3-ITD of 0.0001 to 1 µM. In the case of `O=S(=O)(c1ccc(-c2cnc3[nH]cc(-c4ccc5ncsc5c4)c3n2)cc1)N1CCCC1` [P-160, 6-[2-(4-pyrrolidin-1-ylsulfonylphenyl)-5H-pyrrolo[2,3-b]pyrazin-7-yl]-1,3-benzothiazole], the IC50 on FLT3-D835Y fell in the range of 0.0001 to 1 µM.

As to `Cc1cc(-c2cnc3[nH]cc(-c4ccc5ncn(C(C)(C)C)c5c4)c3c2)cnc1F` [P-394, 1-tert-butyl-6-[5-(6-fluoro-5-methyl-3-pyridyl)-1H-pyrrolo[2,3-b]pyridin-3-yl]benzimidazole], the half-inhibitory concentration (IC50) at FLT3-ITD was 0.0001 to 1 µM. Still for that read-out and setting: in the case of `CC(C)(C)n1cnc2ccc(-c3c[nH]c4ncc(-c5cnc(N)nc5)cc34)cc21` [P-397, 5-[3-(3-tert-butylbenzimidazol-5-yl)-1H-pyrrolo[2,3-b]pyridin-5-yl]pyrimidin-2-amine] it was 0.0001 to 1 µM. On to `COc1cc(-c2cnc3[nH]cc(-c4ccc5ncn(-c6ccc(F)cc6)c5c4)c3c2)cc(OC)n1` [P-198, 5-(2,6-dimethoxy-4-pyridyl)-3-[3-(4-fluorophenyl)benzimidazol-5-yl]-1H-pyrrolo[2,3-b]pyridine], for which, on FLT3-D835Y, the IC50 is 0.0001 to 1 µM. On the same count and under the same terms, in the case of `O=S(=O)(c1cccc(-c2cnc3[nH]cc(-c4ccc5ncsc5c4)c3n2)c1)N1CCCC1` [P-171, 6-[2-(3-pyrrolidin-1-ylsulfonylphenyl)-5H-pyrrolo[2,3-b]pyrazin-7-yl]-1,3-benzothiazole] it was 0.0001 to 1 µM. Same read-out and setting: in the case of `COc1cc(-c2cnc3[nH]c(C)c(-c4ccc5ncn(C)c5c4)c3c2)ccn1` [P-112, 5-(2-methoxy-4-pyridyl)-2-methyl-3-(3-methylbenzimidazol-5-yl)-1H-pyrrolo[2,3-b]pyridine] it was 0.0001 to 1 µM. In turn, `COc1cc(-c2cnc3[nH]cc(-c4ccc5ncsc5c4)c3n2)ccc1C#N` [P-183, 4-[7-(1,3-benzothiazol-6-yl)-5H-pyrrolo[2,3-b]pyrazin-2-yl]-2-methoxy-benzonitrile] registered an IC50 against FLT3-D835Y of 0.0001 to 1 µM. In turn, `COc1cc(-c2cnc3[nH]cc(-c4ccc5ncsc5c4)c3n2)cc(OC)n1` [P-172, 6-[2-(2,6-dimethoxy-4-pyridyl)-5H-pyrrolo[2,3-b]pyrazin-7-yl]-1,3-benzothiazole] displayed an IC50 on FLT3-D835Y of 0.0001 to 1 µM. Same read-out and setting: in the case of `Cn1cnc2ccc(-c3c[nH]c4ncc(-c5ccc(S(=O)(=O)N6CCCC6)cc5)nc34)cc21` [P-148, 7-(3-methylbenzimidazol-5-yl)-2-(4-pyrrolidin-1-ylsulfonylphenyl)-5H-pyrrolo[2,3-b]pyrazine] it was 0.0001 to 1 µM; in that of `Cn1cnc2ccc(-c3c[nH]c4ncc(-c5ccc(Cl)c(C#N)c5)cc34)cc21` [P-140, 2-chloro-5-[3-(3-methylbenzimidazol-5-yl)-1H-pyrrolo[2,3-b]pyridin-5-yl]benzonitrile], 0.0001 to 1 µM. Same read-out and setting: in the case of `N#Cc1cc(-c2cnc3[nH]cc(-c4ccc5ncn(-c6ccc(F)cc6)c5c4)c3c2)ccc1F` [P-209, 2-fluoro-5-[3-[3-(4-fluorophenyl)benzimidazol-5-yl]-1H-pyrrolo[2,3-b]pyridin-5-yl]benzonitrile] it was 0.0001 to 1 µM. `COc1cc(-c2cnc3[nH]cc(-c4ccc5ncn(-c6ccc(F)cc6)c5c4)c3n2)cc(OC)n1` [P-205, 2-(2,6-dimethoxy-4-pyridyl)-7-[3-(4-fluorophenyl)benzimidazol-5-yl]-5H-pyrrolo[2,3-b]pyrazine] had a half-maximal inhibitory concentration (IC50) against FLT3-D835Y of 0.0001 to 1 µM.

(Values after patent publication US10160755B2 (Plexxikon Inc., priority 2015, dated 2018).)
